Laboratory results taken from ChEMBL document CHEMBL1687752, “Impact of antifungal prophylaxis on colonization and azole susceptibility of Candida species” (2009).
Converted amounts (≈) assume the structure as drawn.

Each compound was assayed on Nakaseomyces glabratus (assay: Antifungal activity against Candida glabrata isolated from HSCT recipients with acute or chronic GVHD receiving fluconazole by broth microdilution method). Details: not given.
Assay type: functional

Structure (SMILES) | MIC50 | MIC90
CC[C@@H]([C@H](C)O)n1ncn(-c2ccc(N3CCN(c4ccc(OC[C@@H]5CO[C@@](Cn6cncn6)(c6ccc(F)cc6F)C5)cc4)CC3)cc2)c1=O [POSACONAZOLE] | 2 µg/mL (≈ 2.85 µM) | 8 µg/mL (≈ 11.4 µM)

Each compound was assayed on Nakaseomyces glabratus (assay: Antifungal activity against Candida glabrata isolated from HSCT recipients with acute or chronic GVHD prior to initiation of posaconazole therapy assessed as maximum MIC by broth microdilution method). Details: not given.
Assay type: functional

Structure (SMILES) | MIC
CC[C@@H]([C@H](C)O)n1ncn(-c2ccc(N3CCN(c4ccc(OC[C@@H]5CO[C@@](Cn6cncn6)(c6ccc(F)cc6F)C5)cc4)CC3)cc2)c1=O [POSACONAZOLE] | 8 µg/mL

Each compound was assayed on Nakaseomyces glabratus (assay: Antifungal activity against Candida glabrata isolated from HSCT recipient 474 with acute or chronic GVHD mouth after 124 days prophylaxis by broth microdilution method). Details: not given.
Assay type: functional

Structure (SMILES) | MIC
CC[C@@H]([C@H](C)O)n1ncn(-c2ccc(N3CCN(c4ccc(OC[C@@H]5CO[C@@](Cn6cncn6)(c6ccc(F)cc6F)C5)cc4)CC3)cc2)c1=O [POSACONAZOLE] | 0.25 µg/mL (≈ 0.357 µM)

These compounds were tested on Nakaseomyces glabratus (assay: Antifungal activity against Candida glabrata isolated from neutropenic subjects with AML or MDS prior to initiation of fluconazole therapy assessed as maximum MIC by broth microdilution method). Details: not given.
Assay type: functional

Structure (SMILES) | MIC
CC[C@@H]([C@H](C)O)n1ncn(-c2ccc(N3CCN(c4ccc(OC[C@@H]5CO[C@@](Cn6cncn6)(c6ccc(F)cc6F)C5)cc4)CC3)cc2)c1=O [POSACONAZOLE] | 8 µg/mL

The compounds below were run on Pichia kudriavzevii (assay: Antifungal activity against Candida krusei isolated from neutropenic subjects with AML or MDS receiving fluconazole assessed as maximum MIC by broth microdilution method). Details: not given.
Assay type: functional

Structure (SMILES) | MIC
CC[C@@H]([C@H](C)O)n1ncn(-c2ccc(N3CCN(c4ccc(OC[C@@H]5CO[C@@](Cn6cncn6)(c6ccc(F)cc6F)C5)cc4)CC3)cc2)c1=O [POSACONAZOLE] | 0.25 µg/mL

The compounds below were run on Nakaseomyces glabratus (assay: Antifungal activity against Candida glabrata isolated from neutropenic subject 1331 with AML or MDS pharynx after 21 days prophylaxis by broth microdilution method). Details: 504 h.
Assay type: functional

Structure (SMILES) | MIC
CC[C@@H]([C@H](C)O)n1ncn(-c2ccc(N3CCN(c4ccc(OC[C@@H]5CO[C@@](Cn6cncn6)(c6ccc(F)cc6F)C5)cc4)CC3)cc2)c1=O [POSACONAZOLE] | 2 µg/mL (≈ 2.85 µM)

Each compound was assayed on Nakaseomyces glabratus (assay: Antifungal activity against 176 days cultured Candida glabrata isolated from HSCT recipient with acute or chronic GVHD mouth receiving antifungal therapy for 168 days after 113 days of prophylaxis by broth microdilution method). Details: not given.
Assay type: functional

Structure (SMILES) | MIC
CC[C@@H]([C@H](C)O)n1ncn(-c2ccc(N3CCN(c4ccc(OC[C@@H]5CO[C@@](Cn6cncn6)(c6ccc(F)cc6F)C5)cc4)CC3)cc2)c1=O [POSACONAZOLE] | 4 µg/mL (≈ 5.71 µM)

Each compound was assayed on Candida tropicalis (assay: Antifungal activity against -3 days cultured Candida tropicalis isolated from neutropenic subject with AML or MDS pharynx receiving antifungal therapy for 45 days after 24 days of prophylaxis by broth microdilution method). Details: not given.
Assay type: functional

Structure (SMILES) | MIC
CC[C@@H]([C@H](C)O)n1ncn(-c2ccc(N3CCN(c4ccc(OC[C@@H]5CO[C@@](Cn6cncn6)(c6ccc(F)cc6F)C5)cc4)CC3)cc2)c1=O [POSACONAZOLE] | < 0.015 µg/mL

The compounds below were run on Nakaseomyces glabratus (assay: Antifungal activity against Candida glabrata isolated from HSCT recipient 186 with acute or chronic GVHD mouth after 112 days prophylaxis by broth microdilution method). Details: not given.
Assay type: functional

Structure (SMILES) | MIC
CC[C@@H]([C@H](C)O)n1ncn(-c2ccc(N3CCN(c4ccc(OC[C@@H]5CO[C@@](Cn6cncn6)(c6ccc(F)cc6F)C5)cc4)CC3)cc2)c1=O [POSACONAZOLE] | 0.25 µg/mL (≈ 0.357 µM)

Each compound was assayed on Nakaseomyces glabratus (assay: Antifungal activity against Candida glabrata isolated from neutropenic subjects with AML or MDS receiving fluconazole assessed as maximum MIC by broth microdilution method). Details: not given.
Assay type: functional

Structure (SMILES) | MIC
CC[C@@H]([C@H](C)O)n1ncn(-c2ccc(N3CCN(c4ccc(OC[C@@H]5CO[C@@](Cn6cncn6)(c6ccc(F)cc6F)C5)cc4)CC3)cc2)c1=O [POSACONAZOLE] | 2 µg/mL

The compounds below were run on Candida albicans (assay: Antifungal activity against Candida albicans isolated from HSCT recipients with acute or chronic GVHD prior to initiation of posaconazole therapy assessed as maximum MIC by broth microdilution method). Details: not given.
Assay type: functional

Structure (SMILES) | MIC
CC[C@@H]([C@H](C)O)n1ncn(-c2ccc(N3CCN(c4ccc(OC[C@@H]5CO[C@@](Cn6cncn6)(c6ccc(F)cc6F)C5)cc4)CC3)cc2)c1=O [POSACONAZOLE] | 16 µg/mL

These compounds were tested on Nakaseomyces glabratus (assay: Antifungal activity against Candida glabrata isolated from HSCT recipient 002 with acute or chronic GVHD mouth after 116 days prophylaxis by broth microdilution method). Details: not given.
Assay type: functional

Structure (SMILES) | MIC
CC[C@@H]([C@H](C)O)n1ncn(-c2ccc(N3CCN(c4ccc(OC[C@@H]5CO[C@@](Cn6cncn6)(c6ccc(F)cc6F)C5)cc4)CC3)cc2)c1=O [POSACONAZOLE] | 0.5 µg/mL (≈ 0.713 µM)

These compounds were tested on Nakaseomyces glabratus (assay: Antifungal activity against Candida glabrata isolated from neutropenic subjects with AML or MDS prior to initiation of fluconazole therapy by broth microdilution method). Details: not given.
Assay type: functional

Structure (SMILES) | MIC50 | MIC90
CC[C@@H]([C@H](C)O)n1ncn(-c2ccc(N3CCN(c4ccc(OC[C@@H]5CO[C@@](Cn6cncn6)(c6ccc(F)cc6F)C5)cc4)CC3)cc2)c1=O [POSACONAZOLE] | 0.5 µg/mL (≈ 0.713 µM) | 2 µg/mL (≈ 2.85 µM)

What follows are compounds tested on Nakaseomyces glabratus (assay: Antifungal activity against 43 days cultured Candida glabrata isolated from HSCT recipient with acute or chronic GVHD mouth receiving antifungal therapy for 172 days after 114 days of prophylaxis by broth microdilution method). Details: not given.
Assay type: functional

Structure (SMILES) | MIC
CC[C@@H]([C@H](C)O)n1ncn(-c2ccc(N3CCN(c4ccc(OC[C@@H]5CO[C@@](Cn6cncn6)(c6ccc(F)cc6F)C5)cc4)CC3)cc2)c1=O [POSACONAZOLE] | 1 µg/mL (≈ 1.43 µM)

What follows are compounds tested on Candida albicans (assay: Antifungal activity against Candida albicans isolated from HSCT recipients with acute or chronic GVHD receiving fluconazole by broth microdilution method). Details: not given.
Assay type: functional

Structure (SMILES) | MIC50 | MIC90
CC[C@@H]([C@H](C)O)n1ncn(-c2ccc(N3CCN(c4ccc(OC[C@@H]5CO[C@@](Cn6cncn6)(c6ccc(F)cc6F)C5)cc4)CC3)cc2)c1=O [POSACONAZOLE] | 0.03 µg/mL (≈ 0.0428 µM) | 16 µg/mL (≈ 22.8 µM)

Each compound was assayed on Candida albicans (assay: Antifungal activity against Candida albicans isolated from HSCT recipients with acute or chronic GVHD prior to initiation of fluconazole therapy by broth microdilution method). Details: not given.
Assay type: functional

Structure (SMILES) | MIC50 | MIC90
CC[C@@H]([C@H](C)O)n1ncn(-c2ccc(N3CCN(c4ccc(OC[C@@H]5CO[C@@](Cn6cncn6)(c6ccc(F)cc6F)C5)cc4)CC3)cc2)c1=O [POSACONAZOLE] | 0.016 µg/mL (≈ 0.0228 µM) | 0.03 µg/mL (≈ 0.0428 µM)

These compounds were tested on Nakaseomyces glabratus (assay: Antifungal activity against 59 days cultured Candida glabrata isolated from HSCT recipient with acute or chronic GVHD mouth receiving antifungal therapy for 75 days after 33 days of prophylaxis by broth microdilution method). Details: not given.
Assay type: functional

Structure (SMILES) | MIC
CC[C@@H]([C@H](C)O)n1ncn(-c2ccc(N3CCN(c4ccc(OC[C@@H]5CO[C@@](Cn6cncn6)(c6ccc(F)cc6F)C5)cc4)CC3)cc2)c1=O [POSACONAZOLE] | 1 µg/mL (≈ 1.43 µM)

The compounds below were run on Candida albicans (assay: Antifungal activity against Candida albicans isolated from neutropenic subjects with AML or MDS prior to initiation of fluconazole therapy by broth microdilution method). Details: not given.
Assay type: functional

Structure (SMILES) | MIC50 | MIC90
CC[C@@H]([C@H](C)O)n1ncn(-c2ccc(N3CCN(c4ccc(OC[C@@H]5CO[C@@](Cn6cncn6)(c6ccc(F)cc6F)C5)cc4)CC3)cc2)c1=O [POSACONAZOLE] | 0.015 µg/mL (≈ 0.0214 µM) | 0.015 µg/mL (≈ 0.0214 µM)
